In patent EP4745137A1 (Gluetacs Therapeutics (Shanghai) Co., Ltd., priority 2023, dated 2025):
Read-outs that look alike come from different tables or passages of the source.

Assays:
[1] = target: T1, human Cereblon WT GST-tagged protein (Homo sapiens, UniProt Q96SW2); assay: CRBN-binding affinity by HTRF (CEREBLON BINDING kit)
T1 construct: purchased CISBIO 64BDCRBNPEH
Protocol: The CEREBLON BINDING kits (specification: 10,000 tests; product number: Catalog # 64BDCRBNPEH; CISBIO company) was used to determine the CRBN binding ability of the compounds to be tested through a HTRF method (homogeneous time-resolved fluorescence). The specific methods are as follows: • 1. […] Specifically, diluent #9 (1X) solution was used as the diluent, and multiple concentration gradients were set. […] Then, 2.5 µL of human Cereblon WT GST-tagged protein solution was added to each well. Finally, 5 µL of the thoroughly mixed Thalidomide-Re reagent and GST Eu antibody working solution were added to each of the aforementioned wells. […] The blank control wells were sequentially added with 2.5 µL of diluent #9 (1X) solution, 2.5 µL of binding buffer, and 5 µL of thoroughly mixed Thalidomide-Re reagent and GST Eu antibody working solution. • 4.

[2] = target: T2, IKZF3 (Homo sapiens, UniProt Q96SW2+Q9UKT9); assay: Western-blot assay of substrate protein degradation in hPBMCs, IKZF3; type: cell-based; conditions: 24 hours of compound treatment
T2 construct: endogenous in cells; host or cells: hPBMCs (Milecell Biotechnologies)
T2 sequence (Q9UKT9 whole entry): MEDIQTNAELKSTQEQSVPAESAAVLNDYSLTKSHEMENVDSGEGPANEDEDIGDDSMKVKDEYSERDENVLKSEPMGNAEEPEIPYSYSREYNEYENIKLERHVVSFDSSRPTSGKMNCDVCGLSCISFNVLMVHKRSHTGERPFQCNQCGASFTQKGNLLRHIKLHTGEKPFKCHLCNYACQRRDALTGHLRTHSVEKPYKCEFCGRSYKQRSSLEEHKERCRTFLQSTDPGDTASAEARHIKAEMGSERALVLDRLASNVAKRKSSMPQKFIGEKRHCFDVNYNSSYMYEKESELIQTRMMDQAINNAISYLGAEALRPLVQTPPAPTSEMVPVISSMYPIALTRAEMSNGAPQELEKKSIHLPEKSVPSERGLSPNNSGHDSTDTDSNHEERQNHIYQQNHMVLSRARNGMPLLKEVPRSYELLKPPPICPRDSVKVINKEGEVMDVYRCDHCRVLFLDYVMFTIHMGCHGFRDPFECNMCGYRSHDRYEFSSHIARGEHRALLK
T2 sequence (Q96SW2 whole entry): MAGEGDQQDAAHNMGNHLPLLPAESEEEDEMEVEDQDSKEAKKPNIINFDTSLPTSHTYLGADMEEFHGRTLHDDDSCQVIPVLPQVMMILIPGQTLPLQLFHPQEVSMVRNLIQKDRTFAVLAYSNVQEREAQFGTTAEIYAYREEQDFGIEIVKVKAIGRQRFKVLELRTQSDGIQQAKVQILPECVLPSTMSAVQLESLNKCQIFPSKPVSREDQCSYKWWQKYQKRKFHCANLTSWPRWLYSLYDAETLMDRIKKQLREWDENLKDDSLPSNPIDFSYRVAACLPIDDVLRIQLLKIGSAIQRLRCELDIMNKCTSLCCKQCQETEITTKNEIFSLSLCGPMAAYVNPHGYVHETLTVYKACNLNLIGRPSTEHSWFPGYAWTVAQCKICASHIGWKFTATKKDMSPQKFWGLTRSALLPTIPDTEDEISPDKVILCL
T2 sequence (Q16531 whole entry partner): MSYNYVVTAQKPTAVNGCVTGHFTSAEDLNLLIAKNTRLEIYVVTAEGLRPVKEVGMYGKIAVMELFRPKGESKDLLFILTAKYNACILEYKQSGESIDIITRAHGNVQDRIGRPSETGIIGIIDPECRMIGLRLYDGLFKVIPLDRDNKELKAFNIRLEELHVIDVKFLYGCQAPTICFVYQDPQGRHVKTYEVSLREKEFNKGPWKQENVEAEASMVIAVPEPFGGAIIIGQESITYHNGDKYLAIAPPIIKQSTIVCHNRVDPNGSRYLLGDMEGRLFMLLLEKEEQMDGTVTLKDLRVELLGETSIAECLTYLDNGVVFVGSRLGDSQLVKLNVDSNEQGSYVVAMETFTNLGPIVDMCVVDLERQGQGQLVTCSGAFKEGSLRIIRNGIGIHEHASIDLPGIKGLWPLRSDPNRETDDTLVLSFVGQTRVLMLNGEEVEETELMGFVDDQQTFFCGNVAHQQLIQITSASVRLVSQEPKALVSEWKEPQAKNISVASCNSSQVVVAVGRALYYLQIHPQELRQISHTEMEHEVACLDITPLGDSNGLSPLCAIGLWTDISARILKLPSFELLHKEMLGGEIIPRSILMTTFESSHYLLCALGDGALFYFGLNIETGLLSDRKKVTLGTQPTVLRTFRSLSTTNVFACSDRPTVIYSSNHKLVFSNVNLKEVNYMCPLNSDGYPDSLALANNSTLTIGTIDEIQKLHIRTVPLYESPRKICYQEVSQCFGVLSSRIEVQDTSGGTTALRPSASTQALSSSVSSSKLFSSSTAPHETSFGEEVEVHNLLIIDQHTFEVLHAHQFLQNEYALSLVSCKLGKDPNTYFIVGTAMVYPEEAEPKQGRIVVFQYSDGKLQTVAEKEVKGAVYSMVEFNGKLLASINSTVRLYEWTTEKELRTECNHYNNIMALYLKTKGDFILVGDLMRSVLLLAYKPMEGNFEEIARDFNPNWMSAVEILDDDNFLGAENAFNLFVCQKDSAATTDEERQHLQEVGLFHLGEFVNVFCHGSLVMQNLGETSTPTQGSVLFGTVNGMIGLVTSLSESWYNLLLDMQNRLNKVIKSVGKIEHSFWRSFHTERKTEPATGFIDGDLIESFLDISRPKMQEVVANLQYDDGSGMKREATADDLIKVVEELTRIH

[3] = target: T3, GSPT1 (Homo sapiens, UniProt P15170+Q96SW2); assay: Western-blot assay of substrate protein degradation in hPBMCs, GSPT1; type: cell-based; conditions: 24 hours of compound treatment
T3 construct: endogenous in cells; host or cells: hPBMCs (Milecell Biotechnologies)
T3 sequence (P15170 whole entry): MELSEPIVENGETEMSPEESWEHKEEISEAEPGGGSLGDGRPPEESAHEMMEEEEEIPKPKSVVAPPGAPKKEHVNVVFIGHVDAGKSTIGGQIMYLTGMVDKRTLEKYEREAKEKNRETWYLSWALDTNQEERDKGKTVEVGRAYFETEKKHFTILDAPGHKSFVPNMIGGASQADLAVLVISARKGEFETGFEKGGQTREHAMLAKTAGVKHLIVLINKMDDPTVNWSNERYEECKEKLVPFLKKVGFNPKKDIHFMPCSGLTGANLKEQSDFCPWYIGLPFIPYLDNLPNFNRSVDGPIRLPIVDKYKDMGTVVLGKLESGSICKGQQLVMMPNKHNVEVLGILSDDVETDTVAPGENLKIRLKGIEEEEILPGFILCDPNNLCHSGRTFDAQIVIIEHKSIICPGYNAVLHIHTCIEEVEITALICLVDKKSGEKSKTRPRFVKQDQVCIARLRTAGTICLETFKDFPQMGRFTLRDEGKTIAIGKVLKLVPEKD
T3 sequence (Q96SW2 whole entry): as the sequence (Q96SW2 whole entry) above
T3 sequence (Q16531 whole entry partner): as the sequence (Q16531 whole entry partner) above

[4] = target: T4, WEE1 (Homo sapiens, UniProt P30291+Q96SW2); assay: Western-blot assay of substrate protein degradation in hPBMCs, WEE1; type: cell-based; conditions: 24 hours of compound treatment
T4 construct: endogenous in cells; host or cells: hPBMCs (Milecell Biotechnologies)
T4 sequence (P30291 whole entry): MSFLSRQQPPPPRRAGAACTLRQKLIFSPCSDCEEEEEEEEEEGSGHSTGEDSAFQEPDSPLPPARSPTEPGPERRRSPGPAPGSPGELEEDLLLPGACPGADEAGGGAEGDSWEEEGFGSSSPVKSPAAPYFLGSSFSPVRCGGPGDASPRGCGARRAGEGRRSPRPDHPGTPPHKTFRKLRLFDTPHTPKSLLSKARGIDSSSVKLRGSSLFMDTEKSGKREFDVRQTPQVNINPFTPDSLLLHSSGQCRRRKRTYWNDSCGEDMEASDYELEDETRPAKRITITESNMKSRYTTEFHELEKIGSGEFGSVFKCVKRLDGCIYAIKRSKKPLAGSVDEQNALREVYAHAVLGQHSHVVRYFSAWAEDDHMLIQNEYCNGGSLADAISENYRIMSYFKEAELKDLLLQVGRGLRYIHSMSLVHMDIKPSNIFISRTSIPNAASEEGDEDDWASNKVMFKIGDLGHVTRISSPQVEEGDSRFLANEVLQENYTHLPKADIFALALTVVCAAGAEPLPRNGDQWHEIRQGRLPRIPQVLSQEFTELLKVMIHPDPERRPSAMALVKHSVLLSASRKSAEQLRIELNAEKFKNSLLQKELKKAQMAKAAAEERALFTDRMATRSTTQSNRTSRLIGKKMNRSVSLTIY
T4 sequence (Q96SW2 whole entry): as the sequence (Q96SW2 whole entry) above
T4 sequence (Q16531 whole entry partner): as the sequence (Q16531 whole entry partner) above

[5] = target: T5, CK1α (Homo sapiens, UniProt P48729+Q96SW2); assay: Western-blot assay of substrate protein degradation in hPBMCs, CK1α; type: cell-based; conditions: 24 hours of compound treatment
T5 construct: endogenous in cells; host or cells: hPBMCs (Milecell Biotechnologies)
T5 sequence (P48729 whole entry): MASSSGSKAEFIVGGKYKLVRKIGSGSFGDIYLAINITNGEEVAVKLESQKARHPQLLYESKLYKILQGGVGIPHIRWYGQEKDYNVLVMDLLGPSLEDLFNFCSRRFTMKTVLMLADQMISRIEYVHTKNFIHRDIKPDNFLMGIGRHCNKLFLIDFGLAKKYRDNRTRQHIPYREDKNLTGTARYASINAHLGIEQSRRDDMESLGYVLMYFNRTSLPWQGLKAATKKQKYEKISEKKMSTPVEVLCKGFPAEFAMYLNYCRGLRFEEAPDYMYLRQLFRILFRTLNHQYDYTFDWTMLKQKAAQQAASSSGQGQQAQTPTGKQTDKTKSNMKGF
T5 sequence (Q96SW2 whole entry): as the sequence (Q96SW2 whole entry) above
T5 sequence (Q16531 whole entry partner): as the sequence (Q16531 whole entry partner) above

[6] = target: T6, IKZF1 (Homo sapiens, UniProt Q13422+Q96SW2); assay: Western-blot assay of substrate protein degradation in hPBMCs, IKZF1; type: cell-based; conditions: 24 hours of compound treatment
T6 construct: endogenous in cells; host or cells: hPBMCs (Milecell Biotechnologies)

[7] = target: T7, IKZF2 (Homo sapiens, UniProt Q96SW2+Q9UKS7); assay: Western-blot assay of substrate protein degradation in hPBMCs, IKZF2; type: cell-based; conditions: 24 hours of compound treatment
T7 construct: endogenous in cells; host or cells: hPBMCs (Milecell Biotechnologies)
T7 sequence (Q9UKS7 whole entry): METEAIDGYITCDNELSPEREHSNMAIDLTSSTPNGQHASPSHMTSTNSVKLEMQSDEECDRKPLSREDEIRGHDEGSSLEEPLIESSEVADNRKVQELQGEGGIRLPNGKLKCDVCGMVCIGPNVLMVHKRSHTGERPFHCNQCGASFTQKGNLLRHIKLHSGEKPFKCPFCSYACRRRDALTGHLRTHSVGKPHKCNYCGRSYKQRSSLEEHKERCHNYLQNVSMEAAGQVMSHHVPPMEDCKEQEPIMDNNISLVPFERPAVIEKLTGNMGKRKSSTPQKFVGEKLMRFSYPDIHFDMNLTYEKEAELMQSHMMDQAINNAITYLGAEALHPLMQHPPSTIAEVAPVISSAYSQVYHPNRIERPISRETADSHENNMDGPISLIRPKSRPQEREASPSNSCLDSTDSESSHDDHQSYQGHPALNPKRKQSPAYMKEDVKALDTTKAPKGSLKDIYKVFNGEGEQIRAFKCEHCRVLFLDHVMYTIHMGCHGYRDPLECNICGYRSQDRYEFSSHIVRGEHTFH
T7 sequence (Q96SW2 whole entry): as the sequence (Q96SW2 whole entry) above
T7 sequence (Q16531 whole entry partner): as the sequence (Q16531 whole entry partner) above

[8] = HTRF inhibitory activity, CEREBLON BINDING kit; read-out: HTRF IC50
[9] = compounds tested at 50 nM and 500 nM (concentration of the table not stated)
[10] = 50 nM and 500 nM tested (concentration behind the class not stated)

T1 sequence (Q96SW2 whole entry): as the sequence (Q96SW2 whole entry) above

O=C1CCC(N2Cc3cc(CN4CCc5sccc5C4)ccc3C2=O)C(=O)N1 (stereo not drawn) [GT-04200, 3-(5-((6,7-dihydrothieno[3,2-c]pyridin-5(4H)-yl)methyl)-1-oxoisoindolin-2-yl)piperidine-2,6-dione]
IC50 [1, 8]: 500 to 1000 nM
IKZF3 substrate protein remaining % [2, 9]: A (0% ≤ substrate protein remaining % ≤ 80%)
GSPT1 substrate protein remaining % [3, 9]: B (80%< substrate protein remaining %≤ 100%)
Weel substrate protein remaining % [4, 9]: A (0% ≤ substrate protein remaining % ≤ 80%)
CK1a substrate protein remaining % [5, 9]: B (80%< substrate protein remaining %≤ 100%)
IKZF 1 substrate protein remaining % [6, 9]: B (80%< substrate protein remaining %≤ 100%)
IKZF2 substrate protein remaining % [7, 9]: A (0% ≤ substrate protein remaining % ≤ 80%)

O=C1CCC(N2Cc3cc(CN4CCN(c5ncccc5Cl)CC4)ccc3C2=O)C(=O)N1 (stereo not drawn) [GT-04428, 3-(5-((4-(3-chloropyridin-2-yl)piperazin-1-yl)methyl)-1-oxoisoindolin-2-yl)piperidine-2,6-dione]
IC50 [1, 8]: < 500 nM
IKZF3 substrate protein remaining % [2, 9]: B (80%< substrate protein remaining %≤ 100%)
GSPT1 substrate protein remaining % [3, 9]: A (0% ≤ substrate protein remaining % ≤ 80%)
Weel substrate protein remaining % [4, 9]: B (80%< substrate protein remaining %≤ 100%)
CK1a substrate protein remaining % [5, 9]: B (80%< substrate protein remaining %≤ 100%)
IKZF 1 substrate protein remaining % [6, 9]: B (80%< substrate protein remaining %≤ 100%)
IKZF2 substrate protein remaining % [7, 9]: B (80%< substrate protein remaining %≤ 100%)

O=C1CCC(N2Cc3cc(CN4CCN(c5ccnc(Cl)c5)CC4)ccc3C2=O)C(=O)N1 (stereo not drawn) [GT-04435, 3-(5-((4-(2-chloropyridin-4-yl)piperazin-1-yl)methyl)-1-oxoisoindolin-2-yl)piperidine-2,6-dione]
IC50 [1, 8]: < 500 nM

O=C1CCC(N2Cc3cc(CN4CCN(c5c(Cl)cncc5Cl)CC4)ccc3C2=O)C(=O)N1 (stereo not drawn) [GT-04436, 3-(5-((4-(3,5-dichloropyridin-4-yl)piperazin-1-yl)methyl)-1-oxoisoindolin-2-yl)piperidine-2,6-dione]
IC50 [1, 8]: < 500 nM

O=C1CCC(N2Cc3cc(CN4CCN(c5nc(Cl)nc6c5SCC6)CC4)ccc3C2=O)C(=O)N1 (stereo not drawn) [GT-04683, 3-(5-((4-(2-chloro-6,7-dihydrothieno[3,2-d]pyrimidin-4-yl)piperazin-1-yl)methyl)-1-oxoisoindolin-2-yl)piperidine-2,6-dione]
IC50 [1, 8]: 500 to 1000 nM

O=C1CCC(N2Cc3cc(CN4CCN(c5nc6c(c(N7CCNCC7)n5)SCC6)CC4)ccc3C2=O)C(=O)N1 (stereo not drawn) [GT-04720, 3-(1-oxo-5-((4-(4-(piperazin-1-yl)-6,7-dihydrothieno[3,2-d]pyrimidin-2-yl)piperazin-1-yl)methyl)isoindolin-2-yl)piperidine-2,6-dione]
IC50 [1, 8]: < 500 nM

O=C1CCC(N2Cc3cc(CN4CCC(c5noc6cc(F)ccc56)CC4)cc(F)c3C2=O)C(=O)N1 (stereo not drawn) [GT-04767, 3-(7-fluoro-5-((4-(6-fluorobenzo[d]isoxazol-3-yl)piperidin-1-yl)methyl)-1-oxoisoindolin-2-yl)piperidine-2,6-dione]
IC50 [1, 8]: 500 to 1000 nM

O=C1CCC(N2Cc3ccc(CN4CCC(c5noc6cc(F)ccc56)CC4)cc3C2=O)C(=O)N1 (stereo not drawn) [GT-04768, 3-(6-((4-(6-fluorobenzo[d]isoxazol-3-yl)piperidin-1-yl)methyl)-1-oxoisoindolin-2-yl)piperidine-2,6-dione]
IC50 [1, 8]: 1500 to 1900 nM

O=C1CCC(N2Cc3cc(CN4CCN(c5c(Cl)ccnc5Cl)CC4)ccc3C2=O)C(=O)N1 (stereo not drawn) [GT-04896, 3-(5-((4-(2,4-dichloropyridin-3-yl)piperazin-1-yl)methyl)-1-oxoisoindolin-2-yl)piperidine-2,6-dione]
IC50 [1, 8]: 500 to 1000 nM

Cc1nc(N2CCN(Cc3ccc4c(c3)CN(C3CCC(=O)NC3=O)C4=O)CC2)c2c(-c3ccccc3)csc2n1 (stereo not drawn) [GT-05100, 3-(5-((4-(2-methyl-5-phenylthieno[2,3-d]pyrimidin-4-yl)piperazin-1-yl)methyl)-1-oxoisoindolin-2-yl)piperidine-2,6-dione]
IC50 [1, 8]: < 500 nM

O=C1CCC(N2C(=O)c3ccc(CN4CCN(c5ncnc6scc(-c7ccccc7)c56)CC4)cc3C2=O)C(=O)N1 (stereo not drawn) [GT-06345, 2-(2,6-dioxopiperidin-3-yl)-5-((4-(5-phenylthieno[2,3-d]pyrimidin-4-yl)piperazin-1-yl)methyl)isoindoline-1,3-dione]
IC50 [1, 8]: 1000 to 1500 nM

Cc1nc(N2CCN(Cc3ccc4c(c3)C(=O)N(C3CCC(=O)NC3=O)C4=O)CC2)c2c(-c3ccccc3)csc2n1 (stereo not drawn) [GT-06346, 2-(2,6-dioxopiperidin-3-yl)-5-((4-(2-methyl-5-phenylthieno[2,3-d]pyrimidin-4-yl)piperazin-1-yl)methyl)isoindoline-1,3-dione]
IC50 [1, 8]: 1000 to 1500 nM

O=C1CCC(N2C(=O)c3ccc(CN4CCC(c5ncnc6scc(-c7ccccc7)c56)CC4)cc3C2=O)C(=O)N1 (stereo not drawn) [GT-06595, 2-(2,6-dioxopiperidin-3-yl)-5-((4-(5-phenylthieno[2,3-d]pyrimidin-4-yl)piperidin-1-yl)methyl)isoindoline-1,3-dione]
IC50 [1, 8]: 1000 to 1500 nM

O=C1CCC(N2C(=O)c3ccc(CN4CCN(c5ccc(Cl)nn5)CC4)cc3C2=O)C(=O)N1 (stereo not drawn) [GT-06605, 5-((4-(6-chloropyridazin-3-yl)piperazin-1-yl)methyl)-2-(2,6-dioxopiperidin-3-yl)isoindoline-1,3-dione]
IC50 [1, 8]: 1500 to 1900 nM

O=C1CCC(N2C(=O)c3ccc(CN4CCN(c5nc6c(c(N7CCOCC7)n5)SCC6)CC4)cc3C2=O)C(=O)N1 (stereo not drawn) [GT-06713, 2-(2,6-dioxopiperidin-3-yl)-5-((4-(4-morpholino-6,7-dihydrothieno[3,2-d]pyrimidin-2-yl)piperazin-1-yl)methyl)isoindoline-1,3-dione]
IC50 ([1]; read-out: HTRF IC50; HTRF inhibitory activity, CEREBLON BINDING kit): 1500 to 1900 nM

O=C1CCC(N2C(=O)c3ccc(CN4CCCC(C5CCNCC5)C4)cc3C2=O)C(=O)N1 (stereo not drawn) [GT-06881, 5-([3,4'-bipiperidin]-1-ylmethyl)-2-(2,6-dioxopiperidin-3-yl)isoindoline-1,3-dione]
IKZF3 substrate protein remaining % [2, 10]: B (80%< substrate protein remaining %≤ 100%)
GSPT1 substrate protein remaining % [3, 10]: A (0% ≤ substrate protein remaining % ≤ 80%)
Weel substrate protein remaining % [4, 10]: B (80%< substrate protein remaining %≤ 100%)
CK1a substrate protein remaining % [5, 10]: A (0% ≤ substrate protein remaining % ≤ 80%)
IKZF 1 substrate protein remaining % [6, 10]: B (80%< substrate protein remaining %≤ 100%)
IKZF2 substrate protein remaining % [7, 10]: B (80%< substrate protein remaining %≤ 100%)

O=C1CCC(N2C(=O)c3ccc(CNC45CC6CC(CC(C6)C4)C5)cc3C2=O)C(=O)N1 (stereo not drawn) [GT-06912, 5-((((3s,5s,7s)-adamantan-1-yl)amino)methyl)-2-(2,6-dioxopiperidin-3-yl)isoindoline-1,3-dione]
IKZF3 substrate protein remaining % [2, 10]: B (80%< substrate protein remaining %≤ 100%)
GSPT1 substrate protein remaining % [3, 10]: A (0% ≤ substrate protein remaining % ≤ 80%)
Weel substrate protein remaining % [4, 10]: A (0% ≤ substrate protein remaining % ≤ 80%)
CK1a substrate protein remaining % [5, 10]: A (0% ≤ substrate protein remaining % ≤ 80%)
IKZF 1 substrate protein remaining % [6, 10]: A (0% ≤ substrate protein remaining % ≤ 80%)
IKZF2 substrate protein remaining % [7, 10]: A (0% ≤ substrate protein remaining % ≤ 80%)

O=C1CCC(N2C(=O)c3ccc(CN4CCN(c5cnccn5)CC4)cc3C2=O)C(=O)N1 (stereo not drawn) [GT-07060, 2-(2,6-dioxopiperidin-3-yl)-5-((4-(pyrazin-2-yl)piperazin-1-yl)methyl)isoindoline-1,3-dione]
IKZF3 substrate protein remaining % [2, 10]: A (0% ≤ substrate protein remaining % ≤ 80%)
GSPT1 substrate protein remaining % [3, 10]: A (0% ≤ substrate protein remaining % ≤ 80%)
Weel substrate protein remaining % [4, 10]: A (0% ≤ substrate protein remaining % ≤ 80%)
CK1a substrate protein remaining % [5, 10]: A (0% ≤ substrate protein remaining % ≤ 80%)
IKZF 1 substrate protein remaining % [6, 10]: A (0% ≤ substrate protein remaining % ≤ 80%)
IKZF2 substrate protein remaining % [7, 10]: A (0% ≤ substrate protein remaining % ≤ 80%)

O=C1CCC(N2C(=O)c3ccc(CN4CCN(c5cccnn5)CC4)cc3C2=O)C(=O)N1 (stereo not drawn) [GT-07844, 2-(2,6-dioxopiperidin-3-yl)-5-((4-(pyridazin-3-yl)piperazin-1-yl)methyl)isoindoline-1,3-dione]
IKZF3 substrate protein remaining % [2, 10]: A (0% ≤ substrate protein remaining % ≤ 80%)
GSPT1 substrate protein remaining % [3, 10]: B (80%< substrate protein remaining %≤ 100%)
Weel substrate protein remaining % [4, 10]: B (80%< substrate protein remaining %≤ 100%)
CK1a substrate protein remaining % [5, 10]: B (80%< substrate protein remaining %≤ 100%)
IKZF 1 substrate protein remaining % [6, 10]: A (0% ≤ substrate protein remaining % ≤ 80%)
IKZF2 substrate protein remaining % [7, 10]: B (80%< substrate protein remaining %≤ 100%)
